Test systems include TK-10 renal; IGROV1 ovarian; A498 renal; NCI/ADR-RES ovarian; MDA-MB-231 breast; CCRF-CEM leukemia; SK-MEL-5 melanoma; UO-31 renal; MOLT-4 leukemia; HOP-62 NSCLC.
Holding throughout (assay): NCI-60 cell line screen, 48 h

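Cells were grown in 96-well plates and exposed to each compound for 48 hours at five concentrations; endpoints were interpolated linearly between bracketing concentrations, or set to the highest concentration if not reached. GI50 = concentration required for 50% inhibition of growth. TGI: concentration producing complete growth inhibition.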

As for `COc1cc(CNc2oc(-c3ccccc3)c(-c3ccccc3)c2C#N)cc(CN2CCN(C)CC2)c1O`, the GI50 with TK-10 renal is 1.62 µM; with IGROV1 ovarian, 1.58 µM; in the assay on A498 renal, 1.55 µM; in the assay on NCI/ADR-RES ovarian it was 2.1 µM; in the assay on MDA-MB-231 breast, 2.01 µM; in the assay on CCRF-CEM leukemia, 2.85 µM. For the same compound, the GI50 in the assay with SK-MEL-5 melanoma was 1.62 µM; in the assay with UO-31 renal it was 1.23 µM; in the assay with MOLT-4 leukemia, 1.96 µM; in the assay with HOP-62 NSCLC, 1.92 µM. In addition, the TGI with TK-10 renal was determined as 3.34 µM; with IGROV1 ovarian it was 3.25 µM; with A498 renal, 3.48 µM; in the assay on NCI/ADR-RES ovarian it was 4.75 µM; in the assay with MDA-MB-231 breast, 3.93 µM; in the assay on CCRF-CEM leukemia, 10 µM. In addition, the TGI in the assay with SK-MEL-5 melanoma amounted to 3.05 µM; with UO-31 renal, 2.62 µM; in the assay with MOLT-4 leukemia, 4.24 µM; in the assay on HOP-62 NSCLC, 4.21 µM.

For the compound `CC[C@H](C)[C@H](NC(=O)c1cccn1C)C(=O)N(C)[C@H](C[C@@H](OC(C)=O)c1nc(C(=O)N[C@@H](Cc2ccccc2)C[C@H](C)C(=O)OC)cs1)C(C)C`, the GI50 was 2.61 µM in the assay with TK-10 renal; 0.228 µM in the assay on IGROV1 ovarian; 0.0722 µM with A498 renal; 1.2 µM with NCI/ADR-RES ovarian; 0.364 µM in the assay on MDA-MB-231 breast; 0.138 µM in the assay with CCRF-CEM leukemia. For the same compound, the GI50 in the assay with SK-MEL-5 melanoma was 0.103 µM; with UO-31 renal, 1.3 µM; in the assay with MOLT-4 leukemia it was 0.429 µM; in the assay on HOP-62 NSCLC it was 0.32 µM. Also, the TGI in the assay on TK-10 renal was > 33.3 µM; in the assay with IGROV1 ovarian it was > 33.3 µM; in the assay with A498 renal it was 7.06 µM; with NCI/ADR-RES ovarian, > 33.3 µM; in the assay on MDA-MB-231 breast, 5.75 µM; in the assay with CCRF-CEM leukemia, > 33.3 µM. Moreover, the TGI is 0.736 µM in the assay with SK-MEL-5 melanoma, > 33.3 µM with UO-31 renal, > 33.3 µM in the assay with MOLT-4 leukemia and > 33.3 µM with HOP-62 NSCLC.

In the case of `COc1cc(NCCCCCN=C(N)NC(N)=NC(C)C)c2ncccc2c1`, the GI50 is 6.14 µM in the assay with TK-10 renal; 0.228 µM with IGROV1 ovarian; 13.8 µM with A498 renal; > 100 µM in the assay with NCI/ADR-RES ovarian; 0.531 µM with MDA-MB-231 breast; 2.2 µM in the assay with CCRF-CEM leukemia. Besides, the GI50 in the assay on SK-MEL-5 melanoma was 1.44 µM; in the assay on UO-31 renal, 27.1 µM; in the assay with MOLT-4 leukemia it was 0.518 µM; with HOP-62 NSCLC, 5.14 µM. For the same compound, the TGI is 19.9 µM in the assay with TK-10 renal; 0.809 µM in the assay with IGROV1 ovarian; 28.1 µM with A498 renal; > 100 µM in the assay on NCI/ADR-RES ovarian; 4.47 µM in the assay with MDA-MB-231 breast; 17.4 µM in the assay on CCRF-CEM leukemia. The TGI in the assay on SK-MEL-5 melanoma is 3.01 µM; with UO-31 renal it was > 100 µM; in the assay on MOLT-4 leukemia it was 11 µM; in the assay on HOP-62 NSCLC it was 19.1 µM.

Regarding `CNC(=O)c1cncc(/C=C/c2ccccc2Cl)c1`, the GI50 with TK-10 renal, with IGROV1 ovarian, in the assay on A498 renal, in the assay on NCI/ADR-RES ovarian, in the assay with MDA-MB-231 breast and with CCRF-CEM leukemia was > 25 µM throughout. Moreover, the GI50 is > 25 µM in the assay on SK-MEL-5 melanoma, > 23.6 µM with UO-31 renal, > 25 µM in the assay on MOLT-4 leukemia and > 25 µM with HOP-62 NSCLC. Moreover, the TGI with TK-10 renal, in the assay on IGROV1 ovarian, in the assay with A498 renal, with NCI/ADR-RES ovarian, with MDA-MB-231 breast and in the assay with CCRF-CEM leukemia was > 25 µM each time. In addition, the TGI in the assay with SK-MEL-5 melanoma, with UO-31 renal, in the assay with MOLT-4 leukemia and in the assay on HOP-62 NSCLC was > 25 µM throughout.

For the compound `C=C1CCC2C3(C)COC(c4ccccc4Cl)OC3CCC2(C)C1/C=C/C1=CCOC1=O` (centres undefined), the GI50 in the assay on TK-10 renal is 19 µM; in the assay with IGROV1 ovarian, > 100 µM; in the assay on A498 renal, > 100 µM; in the assay on NCI/ADR-RES ovarian it was 7.74 µM; with MDA-MB-231 breast, > 100 µM; in the assay on CCRF-CEM leukemia, 5.33 µM. Further, the GI50 with SK-MEL-5 melanoma is 3.78 µM; in the assay on UO-31 renal, 6.95 µM; with MOLT-4 leukemia, 3.77 µM; with HOP-62 NSCLC it was > 100 µM. For the same compound, the TGI in the assay on TK-10 renal, in the assay with IGROV1 ovarian, in the assay with A498 renal, in the assay with NCI/ADR-RES ovarian, with MDA-MB-231 breast and in the assay with CCRF-CEM leukemia was > 100 µM throughout. Also, the TGI with SK-MEL-5 melanoma was 21 µM; in the assay on UO-31 renal it was > 100 µM; in the assay on MOLT-4 leukemia, > 100 µM; with HOP-62 NSCLC, > 100 µM.

As to `COc1cc2nccc(Oc3ccc(NC(=O)c4cn(C(C)C)c(=O)n(-c5ccc(F)cc5)c4=O)cc3F)c2cc1OC`, the GI50 in the assay with TK-10 renal was > 70.7 µM; in the assay on A498 renal, 1.64 µM; in the assay on NCI/ADR-RES ovarian, > 100 µM; with MDA-MB-231 breast it was 2.61 µM; in the assay on CCRF-CEM leukemia it was > 100 µM; in the assay with SK-MEL-5 melanoma, > 100 µM. Also, the GI50 in the assay on UO-31 renal was 3.65 µM; with MOLT-4 leukemia it was > 100 µM; in the assay with HOP-62 NSCLC, > 69.4 µM. Also, the TGI in the assay with TK-10 renal was > 100 µM; in the assay on IGROV1 ovarian, > 100 µM; in the assay on A498 renal, 6.27 µM; in the assay with NCI/ADR-RES ovarian, > 100 µM; in the assay on MDA-MB-231 breast it was 39.5 µM; with CCRF-CEM leukemia it was > 100 µM. Further, the TGI was > 100 µM in the assay with SK-MEL-5 melanoma, > 40 µM in the assay with UO-31 renal, > 100 µM with MOLT-4 leukemia and > 100 µM with HOP-62 NSCLC.

For the compound `CC(C)(C)OC(=O)N[C@@H](Cc1ccccc1)C(=O)N(Cc1ccccc1)C1(C(=O)NCc2ccccc2)CCN(Cc2ccccc2)CC1`, the GI50 with TK-10 renal was 3.17 µM; in the assay on IGROV1 ovarian it was 5.7 µM; in the assay on A498 renal it was 1.43 µM; with NCI/ADR-RES ovarian, 2.85 µM; in the assay on MDA-MB-231 breast, 3.01 µM; with CCRF-CEM leukemia, 3.35 µM. For the same compound, the GI50 was 1.73 µM in the assay with SK-MEL-5 melanoma, 2.16 µM in the assay on UO-31 renal, 1.83 µM with MOLT-4 leukemia and 3.89 µM with HOP-62 NSCLC. Also, the TGI in the assay on TK-10 renal is 70.3 µM; with IGROV1 ovarian it was > 100 µM; in the assay on A498 renal, 6.36 µM; in the assay with NCI/ADR-RES ovarian, 46.9 µM; in the assay on MDA-MB-231 breast it was 79 µM; in the assay with CCRF-CEM leukemia it was > 100 µM. In addition, the TGI in the assay on SK-MEL-5 melanoma was 3.29 µM; in the assay on UO-31 renal, > 100 µM; in the assay with MOLT-4 leukemia, 6.33 µM; in the assay on HOP-62 NSCLC, > 100 µM.

Source of the values: PubChem BioAssay (NCI).
